# Experimental data: ChEMBL document CHEMBL3112450, “Synthesis and in vitro antitumor evaluation of primary amine substituted quinazoline linked benzimidazole” (Bioorg Med Chem Lett, 2014)
# Experiments:
# Format in all cases: functional
# K562 = assay: Cytotoxicity against human K562 cells after 48 hrs by SRB assay; conditions: K562, 48 h
# RXF 393 [1] = assay: Cytotoxicity against human RXF393 cells assessed as cell growth at 10^-4 M after 48 hrs by SRB assay; conditions: RXF 393, 48 h, read-out: Activity
# MOLT-4 [2] = assay: Cytotoxicity against human MOLT4 cells assessed as cell growth at 10^-7 M after 48 hrs by SRB assay; conditions: MOLT-4, 48 h, read-out: Activity
# SK-MEL-2 = assay: Cytotoxicity against human SK-MEL-2 cells assessed as cell growth at 10^-4 M after 48 hrs by SRB assay; conditions: SK-MEL-2, 48 h, read-out: Activity
# SF-295 = assay: Cytotoxicity against human SF295 cells assessed as cell growth at 10^-4 M after 48 hrs by SRB assay; conditions: SF-295, 48 h, read-out: Activity
# MDA-MB-435 [3] = assay: Cytotoxicity against human MDA-MB-435 cells assessed as cell growth at 10^-8 M after 48 hrs by SRB assay; conditions: MDA-MB-435, 48 h, read-out: Activity
# CCRF-CEM [4] = assay: Cytotoxicity against human CCRF-CEM cells assessed as cell growth at 10^-4 M after 48 hrs by SRB assay; conditions: read-out: Activity
# SNB-19 = assay: Cytotoxicity against human SNB19 cells assessed as cell growth at 10^-8 M after 48 hrs by SRB assay; conditions: SNB-19, 48 h, read-out: Activity
# KM12 = assay: Cytotoxicity against human KM12 cells assessed as cell growth at 10^-8 M after 48 hrs by SRB assay; conditions: KM12, 48 h, read-out: Activity
# HOP-62 = assay: Cytotoxicity against human HOP62 cells assessed as cell growth at 10^-8 M after 48 hrs by SRB assay; conditions: HOP-62, 48 h, read-out: Activity
# MOLT-4 [5] = assay: Cytotoxicity against human MOLT4 cells assessed as cell growth at 10^-8 M after 48 hrs by SRB assay; conditions: MOLT-4, 48 h, read-out: Activity
# HL-60(TB) = assay: Cytotoxicity against human HL-60(TB) cells assessed as cell growth at 10^-8 M after 48 hrs by SRB assay; conditions: HL-60, 48 h, read-out: Activity
# CCRF-CEM [6] = assay: Cytotoxicity against human CCRF-CEM cells assessed as cell growth at 10^-8 M after 48 hrs by SRB assay; conditions: read-out: Activity
# TK-10 = assay: Cytotoxicity against human TK10 cells after 48 hrs by SRB assay; conditions: TK-10, 48 h
# CAKI-1 = assay: Cytotoxicity against human Caki1 cells after 48 hrs by SRB assay; conditions: CAKI-1, 48 h
# RXF 393 [7] = assay: Cytotoxicity against human RXF393 cells after 48 hrs by SRB assay; conditions: RXF 393, 48 h
# SK-OV-3 = assay: Cytotoxicity against human SKOV3 cells after 48 hrs by SRB assay; conditions: SK-OV-3, 48 h
# [8] = Cytotoxicity against human OVCAR4 cells after 48 hrs by SRB assay; conditions: OVCAR-4, 48 h
# U-251 = assay: Cytotoxicity against human U251 cells after 48 hrs by SRB assay; conditions: U-251, 48 h
# HCC 2998 [9] = assay: Cytotoxicity against human HCC2998 cells after 48 hrs by SRB assay; conditions: HCC 2998, 48 h
# MDA-MB-231 = assay: Cytotoxicity against human MDA-MB-231 cells assessed as cell growth at 10^-6 M after 48 hrs by SRB assay; conditions: MDA-MB-231, 48 h, read-out: Activity
# ACHN = assay: Cytotoxicity against human ACHN cells assessed as cell growth at 10^-6 M after 48 hrs by SRB assay; conditions: read-out: Activity
# A498 = assay: Cytotoxicity against human A498 cells assessed as cell growth at 10^-6 M after 48 hrs by SRB assay; conditions: A498, 48 h, read-out: Activity
# [10] = Cytotoxicity against human NCI-ADR-RES cells assessed as cell growth at 10^-6 M after 48 hrs by SRB assay; conditions: read-out: Activity
# [11] = Cytotoxicity against human OVCAR4 cells assessed as cell growth at 10^-6 M after 48 hrs by SRB assay; conditions: OVCAR-4, 48 h, read-out: Activity
# IGROV-1 = assay: Cytotoxicity against human IGROV1 cells assessed as cell growth at 10^-6 M after 48 hrs by SRB assay; conditions: IGROV-1, 48 h, read-out: Activity
# SK-MEL-28 = assay: Cytotoxicity against human SK-MEL-28 cells assessed as cell growth at 10^-6 M after 48 hrs by SRB assay; conditions: SK-MEL-28, 48 h, read-out: Activity
# MDA-MB-435 [12] = assay: Cytotoxicity against human MDA-MB-435 cells assessed as cell growth at 10^-6 M after 48 hrs by SRB assay; conditions: MDA-MB-435, 48 h, read-out: Activity
# LOX IMVI = assay: Cytotoxicity against human LOXIMVI cells assessed as cell growth at 10^-6 M after 48 hrs by SRB assay; conditions: read-out: Activity
# SF-539 = assay: Cytotoxicity against human SF539 cells assessed as cell growth at 10^-6 M after 48 hrs by SRB assay; conditions: SF-539, 48 h, read-out: Activity
# HCC 2998 [13] = assay: Cytotoxicity against human HCC2998 cells assessed as cell growth at 10^-6 M after 48 hrs by SRB assay; conditions: HCC 2998, 48 h, read-out: Activity
# NCI-H522 = assay: Cytotoxicity against human NCI-H522 cells assessed as cell growth at 10^-6 M after 48 hrs by SRB assay; conditions: NCI-H522, 48 h, read-out: Activity
# NCI-H23 = assay: Cytotoxicity against human NCI-H23 cells assessed as cell growth at 10^-6 M after 48 hrs by SRB assay; conditions: NCI-H23, 48 h, read-out: Activity
# CCRF-CEM [14] = assay: Cytotoxicity against human CCRF-CEM cells assessed as cell growth at 10^-6 M after 48 hrs by SRB assay; conditions: read-out: Activity
# DU-145 = assay: Cytotoxicity against human DU145 cells assessed as cell growth at 10^-7 M after 48 hrs by SRB assay; conditions: DU-145, 48 h, read-out: Activity
# PC-3 = assay: Cytotoxicity against human PC3 cells assessed as cell growth at 10^-7 M after 48 hrs by SRB assay; conditions: PC-3, 48 h, read-out: Activity
# [15] = Cytotoxicity against human UO31 cells assessed as cell growth at 10^-7 M after 48 hrs by SRB assay; conditions: UO-31, 48 h, read-out: Activity
# [16] = Cytotoxicity against human NCI-ADR-RES cells assessed as cell growth at 10^-7 M after 48 hrs by SRB assay; conditions: read-out: Activity
structure (smiles),measurement,setting,value
C=CCn1c(C)nc2ccc(Nc3nc(Nc4ccc5nc(C)n(CC=C)c5c4)c4ccccc4n3)cc21,GI50,K562,1.42 µM
same,LC50 (concentration killing 50% of cells),K562,> 100 µM
same,growth at 100 µM,RXF 393 [1],-31%
same,growth at 0.1 µM,MOLT-4 [2],94%
same,growth at 100 µM,SK-MEL-2,-25%
same,growth at 100 µM,SF-295,-21%
same,growth at 0.01 µM,MDA-MB-435 [3],100%
same,growth at 100 µM,CCRF-CEM [4],2%
same,growth at 0.01 µM,SNB-19,92%
same,growth at 0.01 µM,KM12,96%
same,growth at 0.01 µM,HOP-62,99%
same,growth at 0.01 µM,MOLT-4 [5],101%
same,growth at 0.01 µM,HL-60(TB),97%
same,growth at 0.01 µM,CCRF-CEM [6],97%
same,GI50,TK-10,2.04 µM
same,TGI,TK-10,3.5 µM
same,GI50,CAKI-1,1.72 µM
same,TGI,CAKI-1,3.36 µM
same,GI50,RXF 393 [7],1.8 µM
same,TGI,RXF 393 [7],3.28 µM
same,GI50,SK-OV-3,1.72 µM
same,LC50 (concentration killing 50% of cells),SK-OV-3,5.56 µM
same,TGI,SK-OV-3,3.09 µM
same,GI50,[8],1.53 µM
same,TGI,[8],2.87 µM
same,GI50,U-251,1.62 µM
same,TGI,U-251,2.97 µM
same,GI50,HCC 2998 [9],1.72 µM
same,LC50 (50% lethal concentration),HCC 2998 [9],5.56 µM
same,TGI,HCC 2998 [9],3.09 µM
same,growth at 1 µM,MDA-MB-231,72%
same,growth at 1 µM,ACHN,91%
same,growth at 1 µM,A498,42%
same,growth at 1 µM,[10],90%
same,growth at 1 µM,[11],84%
same,growth at 1 µM,IGROV-1,99%
same,growth at 1 µM,SK-MEL-28,102%
same,growth at 1 µM,MDA-MB-435 [12],92%
same,growth at 1 µM,LOX IMVI,83%
same,growth at 1 µM,SF-539,94%
same,growth at 1 µM,HCC 2998 [13],96%
same,growth at 1 µM,NCI-H522,114%
same,growth at 1 µM,NCI-H23,93%
same,growth at 1 µM,CCRF-CEM [14],82%
same,growth at 0.1 µM,DU-145,100%
same,growth at 0.1 µM,PC-3,88%
same,growth at 0.1 µM,[15],80%
same,growth at 0.1 µM,[16],95%
